The record followed here is publication PMC9102668, “Highly Cytotoxic Osmium(II) Compounds and Their Ruthenium(II) Analogues Targeting Ovarian Carcinoma Cell Lines and Evading Cisplatin Resistance Mechanisms” (International Journal of Molecular Sciences, 2022).

As usually defined, the IC50 is the point on the concentration scale where inhibition reaches its midpoint.

A value given as a limit tells only on which side of the number the result lay.

The test system of series [1] is A2780 and SKOV3 cells and the resistant subcultures. Kind of series: Cell cycle distribution, PI staining and FACS. The class given is cell-based. As to conditions: 48 h treatment, 24 h recovery. The method, then: The reduced viability under treatment, as measured by the MTT assay, can be a result of cell cycle arrest and/or increased cell death. To further evaluate the anticancer properties of the ruthenium(II) complexes we measured cell cycle distribution and cell death rates after treatment with Ru3 or Ru14. After seeding and attaching, the cells were treated for 48 h with different concentrations of substances. For cell cycle distribution measurements, a recovery phase of 24 h was added after treatment, and cells were fixed and stained with PI for the DNA content. Arresting of cells in specific cell cycle phases gives them time to resolve the DNA damage (G1 arrest) or is an initial step to apoptosis if DNA damage is too severe (G2/M arrest).
(§1) To examine cell cycle distribution and cell death rates, 30,000 cells were seeded in 12 well plates. After attaching for 24 h cells were treated with Cisplatin, Ru3 and Ru14 for 48 h at various concentrations for cell cycle and cell death analyses. For cell death analysis, immediately after treatment cells were stained with Propidium Iodid (PI) (1 µg/mL) on ice and the number of dead cells was measured using BD Canto II. For cell cycle distribution, cells recovered for 24 h after treatment. Afterwards, cells were fixed in ice-cold, 50% EtOH for 24 h at −20 °C. For DNA staining, fixed cells were incubated in PBS with 0.05% Triton-X, 0.1 µg/mL RNaseA and 50 µg/mL PI for 1 h at 4 °C in dark. DNA content was measured using BD Canto II.

In another series the test system is SKOV3cis. Kind of series: MTT assay (CellTiter96), cytotoxic activity. The class given is cell-based. As to conditions: for IC50: Cisplatin resistant SKOV3, MTT assay, 48 h incubation; for RF SKOV3 (resistance factor): SKOV3cis vs SKOV3. The method, then: (§2) The biological behaviour of all substances was characterized by their cytotoxic activity against a panel of cell lines enabling an understanding of the structure-activity relationship. Cytotoxic activity was determined on ovarian carcinoma cell lines SKOV3 and A2780 as well as their Cisplatin resistant analogues (SKOV3cis and A2780cis) and the lung carcinoma cell line A549. Due to a low solubility in water, dmso is used as a solvent for the preparation of a dilution series in cell culture experiments. The toxic influence of dmso was determined earlier and experiments were carried out with 0.5% dmso in cell culture media and this concentration was used as reference sample in each MTT assay (details: Section 3). […] Resistance factors (RF) were determined for all substances (for IC50 values and RF of β-Hydroxydithiocinnamic acid esters L1–L18, see Tables S2 and S3, Supplementary part). All investigated ruthenium(II) compounds show lower RF values than Cisplatin on ovarian carcinoma cell lines, ranging from 0.2 to 1.5 (Table 3). Whereas the IC50 values on the non-resistant cell lines are in most cases higher than the IC50 of the reference substance, no increase of IC50 values is observed for the resistant cell lines. Contrary, eight ruthenium complexes show lower IC50 values on SKOV3cis than Cisplatin and four compounds on A2780cis. Thus, it can be concluded that these compounds are able to bypass the Cisplatin resistance mechanism in these cell lines pointing to a different mechanism of action.
(§3) Ovarian cancer cell lines were cultured under standard conditions (5% CO2, 37 °C, 90% humidity) in RPMI medium supplemented with 10% FCS, 100 U/mL penicillin and 100 µg/mL streptomycin (Life Technologies, Dreieich, Germany). Cisplatin (Sigma, Taufkirchen, Germany) was freshly dissolved at 1 mg/mL in 0.9% NaCl solution and diluted appropriately. New ruthenium(II) complexes and ligands were dissolved in dmso. Platinum-resistant A2780 and SKOV3 cells were established by repeated rounds of 3-day incubations with increasing amounts of Cisplatin starting with 0.1 µM. The concentration was doubled after 3 incubations, interrupted by recovery phases with normal medium. […] Determinations of IC50 values were carried out using the CellTiter96 non-radioactive proliferation assay (MTT assay, Promega, Mannheim, Germany). After seeding 5000 cells per well in a 96-well plate, cells were allowed to attach for 24 h and were incubated for 48 h with different concentrations of the substances ranging from 0 to 500 µM for Ruthenium and 0 to 1000 µM for ligand tests (0, 1, 10, 50, 100, 500, 1000 µm), for Cisplatin from 0 to 100 µM (0.1, 1, 5, 10, 50, 100 µM). Each measurement was done in triplicate and repeated 3 times. The proportion of viable cells was quantified by the MTT assay and after background subtraction relative values compared to the mean of medium controls were calculated. Non-linear regression analyses applying the Hill slope were run in GraphPad 5.0 software.

Another series concerns SKOV3. Description: MTT assay (CellTiter96), cytotoxic activity. The class given is cell-based. Particulars: 48 h incubation. As for the experimental part:
as §2, §3

A further series relates to A549. Description: MTT assay (CellTiter96), cytotoxic activity. The class given is cell-based. As to conditions: lung carcinoma cell line, 48 h incubation. As for the experimental part:
as §2, §3
(In general: Formazan colour is commonly taken as a measure of viable cells.)

The subject of another series is A2780. Description: MTT assay (CellTiter96), cytotoxic activity. The class given is cell-based. Particulars: 48 h incubation. As for the experimental part:
as §2, §3

A further series deals with A2780cis. Description: MTT assay (CellTiter96), cytotoxic activity. Particulars: for RF A2780 (resistance factor): A2780cis vs A2780; for IC50: Cisplatin resistant A2780, MTT assay, 48 h incubation. The class given is cell-based. The method, then: as §2, §3
A further series deals with histone γH2AX-foci. Description: γH2AX foci analysis (DNA damage). The class given is cell-based. Particulars: IC50 concentration, 24h incubation. From the text:
ROS production may also lead to endoplasmatic reticulum stress-induced apoptosis. In general, many ruthenium(II) complexes with different ligands induce intracellular ROS [94, 95, 96, 97, 98, 99]. Moreover, the cytotoxic activity of Os(II) compounds can be inhibited by vitamin E co-treatment pointing to the contribution of ROS [88]. In addition to mitochondrial dysfunction, Ru(II) complexes may affect glycolysis or topoisomerase I/II, thus inducing necroptosis. Ru(II) compounds with modified pyrithione ligands were recently described to overcome platinum resistance in ovarian cancer cells by inducing cytostatic G1 arrest, TrxR inhibition, and cell membrane damage. […] Future studies may identify the specific target proteins enabling molecular docking studies and specific refinement of the organo-metal compound structure. Altogether, presented compounds may use some of these alternative modes of action as well, as we see efficient cell death but no cell cycle arrest induction by Ru3/Ru14. Furthermore, the ruthenium(II) core atom might be responsible for this effect because of the lack of anticancer behaviour of the ligand L14 (Supplementary Figure S8). To further confirm that Ru compounds use another mechanism of action, DNA damage analyses were conducted for Ru3 and Ru14 (Figure 8). […]

Series [2] deals with Cisplatin resistant cell lines. Kind of series: Mean IC50 (MTT assay) on Cisplatin resistant cell lines. The class given is cell-based. The method, then: Thus, it can be concluded that the biological activity is mediated by a longer chain (butoxy) at the meta-position, whereas the ortho- and para-positions are more suitable with a shorter chain (ethoxy). To have a further look at the influence of the different ligand systems and substitution patterns, all β-Hydroxydithiocinnamic acid alkyl esters were tested under same conditions as their derived ruthenium(II) complexes (Figure 5B, Supplementary Table S3). […] All ligands are less cytotoxic than Cisplatin itself and therefore the metal(II) center is necessary for the high cytotoxic activity, what is in clear contrast to the literature for O,S-chelating ruthenium(II) or osmium(II) compounds with thiomaltol ligand [48, 71] but confirmed for Ru(II)/Os(II) compounds with N,N-bidentate glycosyl heterocyclic ligands. This is exemplarily shown by the comparison of mean IC50 values for Cisplatin, L14, and Ru14 (Supplementary Figure S8).
as §3

A further series concerns A2780 cells. Description: Cell death rate, PI staining of live cells (FACS). The class given is cell-based. As to conditions: A2780 and SKOV3 cells, 20 µM and 30 µM, 48 h. The method, then:
For cell death rate analysis, live cells were stained with PI immediately after 48 h treatment. […] Furthermore, resistant cells show much lower Cisplatin-induced cell death rates (Figure 7). […] In A2780 cells, both compounds trigger similar cell death rates in parental and Cisplatin-resistant cells. Cisplatin-resistant SKOV3 are much more sensitive to both ruthenium(II) complexes than the parental counterpart, with a median of 3.3-fold higher sensitivity.
as §1

A short description of series [3]: Stability determination via 1H NMR spectroscopy. The class given is physicochemical. The method, then:
To investigate the behaviour of the ruthenium(II) complexes Ru1, Ru3, and Ru8 in solution, we analysed kinetic measurements via ^1H NMR spectroscopy (every 1 h, one spectra). NMR signals and behaviour of the ruthenium and osmium compounds is similar, but osmium(II) compounds show a slower ligand exchange mechanism and a higher stability in general. […] The same measurements were done also with dmso at room temperature. Similar changes in the spectra occur at room temperature and new species are detectable (exemplified for Ru1 in the Supplementary Figure S3). However, slower speciation processes in comparison to 37 °C measurements occur, which is exemplarily represented by the disappearance of the double-doublets of the cymene ligand after 29 h (rt, Supplementary Figure S3) vs. 5 h (37 °C, Supplementary Figure S2). As reported earlier, dmso molecules are able to bind to the ruthenium(II) center by losing the cymene ligand and changing the structure to an octahedral metal(II) coordination sphere. Thus, an explanation for the new species can be the binding of dmso molecules to the ruthenium(II) center after loss of the cymene ligand representing the new species in the ^1H NMR spectra. To support this hypothesis, the ruthenium(II) complexes were measured under same conditions (rt, 72 h) in CD2Cl2, and it was shown that the compounds are stable under these conditions in the other solvent (see Supplementary Figure S4).
NMR spectra were measured via NMR spectroscopy on Bruker Avance 400 MHz. Substances were solved in dmso-d6 or CD2Cl2 and measured directly at 37 °C or room temperature for 72 h. NS = 128 scans, t = 709 s/2891 s break, 72 measurements.

A further series has as its system MCF10A. Kind of series: IC50 on non-cancerous cell cultures. The class given is cell-based. Particulars: non-cancerous breast epithelial cell line.
The next series deals with Fibroblasts. Kind of series: IC50 on non-cancerous cell cultures. The class given is cell-based. Particulars: normal primary short-term cell culture.
The test system of a further series is Keratinocytes. Kind of series: IC50 on non-cancerous cell cultures. The class given is cell-based. As to conditions: normal primary short-term cell culture.

On to `CSC(=S)C=C([O][Ru][Cl])c1cccc(O)c1.Cc1ccc(C(C)C)cc1` [Ru3, [(η^6-p-cymene)Ru(1-(3-hydroxyphenyl)-3-(methylthio)-3-thioxo-prop-1-en-1-olate-O,S)Cl]], for which, in [1], the “effect on cell cycle distribution” value is “no or only a minor effect on cell cycle distribution”. For the same compound, the IC50 amounted to 12.1 µM with SKOV3cis; 18.9 µM in the series on SKOV3; 8 µM in the series with A549; 8.7 µM in the series with A2780; 7.4 µM with A2780cis. In the series with SKOV3cis, the “RF SKOV3 (resistance factor)” value is 0.6. In addition, in the series with A2780cis, the “RF A2780 (resistance factor)” value came to 0.9. In the series on histone γH2AX-foci, the γH2AX-foci induction entry is reported as “less γH2AX-foci as Cisplatin”. Also, the “mean IC50 value on Cisplatin resistant cell lines compared with Cisplatin” value in series [2] was “lower”. The “capacity to induce cell death in vitro” value with A2780 cells is given as “high capacity to induce cell death”.

For “[(n^6-p-cymene)Ru(1-phenyl-3-(methylthio)-3-thioxo-prop-1-en-1-olate-O,S)Cl] [Ru1]”, the concentration for half-maximal inhibition (IC50) in the series on SKOV3cis was determined as 18.4 µM; in the series on SKOV3, 34.7 µM; with A549, 28.8 µM; in the series on A2780, 12.8 µM; in the series on A2780cis, 9.6 µM. In addition, the “RF SKOV3 (resistance factor)” value with SKOV3cis is reported as 0.5. Besides, in the series on A2780cis, the “RF A2780 (resistance factor)” value is 0.75. Moreover, the “disappearance of the double-doublets of the cymene ligand” value in series [3] (dmso, rt) is given as 29 h; in [3] (dmso-d6, 37 °C) it was 5 h. Besides, the “loss of the methine proton signal” value in series [3] (dmso-d6, 37 °C) is listed as 7 h.

As for “[(η^6-p-cymene)Os(1-(3-hydroxyphenyl)-3-(ethylthio)-3-thioxo-prop-1-en-1-olate-O,S)Cl] [Os3]”, the half-inhibitory concentration (IC50) is 21.3 µM with MCF10A; more than 100 µM with Fibroblasts; 84.5 µM in the series with Keratinocytes; 2.3 µM in the series on SKOV3cis; 1.1 µM with SKOV3; 0.7 µM with A549. Further, the IC50 in the series on A2780 and in the series on A2780cis was 0.4 µM each time. Also, in the series with SKOV3cis, the “RF SKOV3 (resistance factor)” value worked out at 2.1. Further, in the series with A2780cis, the “RF A2780 (resistance factor)” value was 1. Besides, in [3] (osmium(II) compounds), the “stability determination using NMR spectroscopy” value was “no structural changes”.

Turning to “[(η^6-p-cymene)Ru(1-(4-ethoxyphenyl)-3-(methylthio)-3-thioxo-prop-1-en-1-olate-O,S)] [Ru15]”, the IC50 in the series with SKOV3cis is 3.7 µM; with SKOV3, 7.4 µM; in the series with A549 it was 16.5 µM; in the series on A2780, 5.8 µM; in the series on A2780cis it was 4.4 µM. Also, in the series on SKOV3cis, the “RF SKOV3 (resistance factor)” value worked out at 0.5. Moreover, the “RF A2780 (resistance factor)” value in the series on A2780cis was found to be 0.8. For the same compound, the “mean IC50 value on Cisplatin resistant cell lines compared with Cisplatin” value in series [2] was “lower”.
